Results published in patent US9695155B2, “Herbicidal substituted pyrimidinyloxy benzene compounds” (E. I. DU PONT DE NEMOURS AND COMPANY, priority 2013, dated 2017).

Columns and labels:
ragweed [1] = experiment: Test A postemergence; format: in vivo, Ambrosia elatior
Outline: (§1)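 Injury scores run from 0, no effect, to 100, complete control, judged by eye against untreated plants roughly 10 days after treatment. Chemicals carried a surfactant in a non-phytotoxic solvent and went onto loam–sand soil preemergence or onto one- to two-leaf seedlings postemergence.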

giant foxtail = experiment: Test C preemergence; format: in vivo, Setaria faberii; conditions: for Foxtail, Giant plant response rating: preemergence; for Plant response rating, Foxtail, Giant: Preemergence, scale 0 to 100, 0 no effect, 100 complete control
Outline: (§2)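 Visual injury score versus untreated controls, 0 = no effect, 100 = complete control, taken 13 to 15 days after treatment in the greenhouse. Pre-emergence pots held loam/sand; post-emergence plants grew in sphagnum peat/vermiculite mix and were sprayed at the 1- to 4-leaf stage.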

ragweed [2] = experiment: Test C preemergence; format: in vivo, Ambrosia elatior; conditions: for Ragweed plant response rating: preemergence; for Plant response rating, Ragweed: Preemergence, scale 0 to 100, 0 no effect, 100 complete control
Outline: as §2

kochia [3] = experiment: Test A preemergence; format: in vivo, Kochia scoparia
Outline: as §1

oilseed rape = experiment: Test C preemergence; format: in vivo, Brassica napus; conditions: for Oilseed Rape plant response rating: preemergence; for Plant response rating, Oilseed Rape: Preemergence, scale 0 to 100, 0 no effect, 100 complete control
Outline: as §2

morningglory = experiment: Test C preemergence; format: in vivo, Ipomoea coccinea; conditions: for Morningglory plant response rating: preemergence; for Plant response rating, Morningglory: Preemergence, scale 0 to 100, 0 no effect, 100 complete control
Outline: as §2

barnyardgrass = experiment: Test C preemergence; format: in vivo, Echinochloa crus-galli; conditions: for Barnyardgrass plant response rating: preemergence; for Plant response rating, Barnyardgrass: Preemergence, scale 0 to 100, 0 no effect, 100 complete control
Outline: as §2

wheat, winter = experiment: Test C preemergence; format: in vivo, Triticum aestivum; conditions: for Wheat plant response rating: preemergence; for Plant response rating, Wheat: Preemergence, scale 0 to 100, 0 no effect, 100 complete control
Outline: as §2

galium = experiment: Test C preemergence; format: in vivo, Galium aparine; conditions: for Galium plant response rating: preemergence; for Plant response rating, Galium: Preemergence, scale 0 to 100, 0 no effect, 100 complete control
Outline: as §2

kochia [4] = experiment: Test A postemergence; format: in vivo, Kochia scoparia
Outline: as §1

corn = experiment: Test C preemergence; format: in vivo, Zea mays; conditions: for Corn plant response rating: preemergence; for Plant response rating, Corn: Preemergence, scale 0 to 100, 0 no effect, 100 complete control
Outline: as §2

velvetleaf = experiment: Test C preemergence; format: in vivo, Abutilon theophrasti; conditions: for Velvetleaf plant response rating: preemergence; for Plant response rating, Velvetleaf: Preemergence, scale 0 to 100, 0 no effect, 100 complete control
Outline: as §2

johnsongrass = experiment: Test C preemergence; format: in vivo, Sorghum halepense; conditions: for Johnsongrass plant response rating: preemergence; for Plant response rating, Johnsongrass: Preemergence, scale 0 to 100, 0 no effect, 100 complete control
Outline: as §2

soybean = experiment: Test C preemergence; format: in vivo, Glycine max; conditions: for Soybean plant response rating: preemergence; for Plant response rating, Soybean: Preemergence, scale 0 to 100, 0 no effect, 100 complete control
Outline: as §2

lambsquarters = experiment: Test C preemergence; format: in vivo, Chenopodium album; conditions: for Lambsquarters plant response rating: preemergence; for Plant response rating, Lambsquarters: Preemergence, scale 0 to 100, 0 no effect, 100 complete control
Outline: as §2

Italian ryegrass = experiment: Test C preemergence; format: in vivo, Lolium multiflorum; conditions: for Ryegrass, Italian plant response rating: preemergence; for Plant response rating, Ryegrass, Italian: Preemergence, scale 0 to 100, 0 no effect, 100 complete control
Outline: as §2

blackgrass = experiment: Test C preemergence; format: in vivo, Alopecurus myosuroides; conditions: for Blackgrass plant response rating: preemergence; for Plant response rating, Blackgrass: Preemergence, scale 0 to 100, 0 no effect, 100 complete control
Outline: as §2

[5] = 31 g ai/ha, 0 to 100 scale, 0 no effect, 100 complete control
[6] = 125 g ai/ha, 0 to 100 scale, 0 no effect, 100 complete control
[7] = 16 g ai/ha, scale 0 to 100 (0 no effect, 100 complete control)
[8] = 125 g ai/ha, scale 0 (no effect) to 100 (complete control)
[9] = 125 g ai/ha, 0 to 100 scale where 0 is no effect and 100 is complete control
[10] = 500 g ai/ha, 0 to 100 scale where 0 is no effect and 100 is complete control
[11] = 8 g ai/ha, scale 0 to 100 (0 no effect, 100 complete control)
[12] = 62 g ai/ha, scale 0 (no effect) to 100 (complete control)

FC(F)Oc1cnn(-c2c(Cl)cccc2Oc2ncc(Cl)cn2)c1 [Compound 258]
0: Ragweed plant response rating (ragweed [2]; [7]) | Wheat plant response rating (wheat, winter; [7]) | Corn plant response rating (corn; [7]) | Ryegrass, Italian plant response rating (Italian ryegrass; [7]) | Blackgrass plant response rating (blackgrass; [7])
75: Foxtail, Giant plant response rating (giant foxtail; [7]) | Plant response rating, Johnsongrass (johnsongrass; 62 g ai/ha) | Plant response rating, Soybean (soybean; 62 g ai/ha)
10: Plant response rating, Ragweed (ragweed [1]; [5]) | Morningglory plant response rating (morningglory; [7])
98: Morningglory plant response rating (morningglory; [8]) | Lambsquarters plant response rating (lambsquarters; [8]) | Plant response rating, Lambsquarters (lambsquarters; 62 g ai/ha)
5: Plant response rating, Wheat (wheat, winter; 62 g ai/ha) | Johnsongrass plant response rating (johnsongrass; [7])
45: Plant response rating, Morningglory (morningglory; 62 g ai/ha) | Barnyardgrass plant response rating (barnyardgrass; [7]) | Plant response rating, Corn (corn; 62 g ai/ha)
50: Plant response rating, Ragweed (ragweed [1]; [6])
65: Corn plant response rating (corn; [8]) | Lambsquarters plant response rating (lambsquarters; [7])
90: Ragweed plant response rating (ragweed [2]; [8]) | Plant response rating, Kochia (kochia [3]; 31 g ai/ha, 0 to 100 scale where 0 is no effect and 100 is complete control, visual, approximately 10 days) | Kochia plant response rating (0 to 100 scale) (kochia [3]; 125 g ai/ha) | Plant response rating, Barnyardgrass (barnyardgrass; 62 g ai/ha) | Plant response rating, Kochia (kochia [4]; [5]) | Johnsongrass plant response rating (johnsongrass; [8]) | Blackgrass plant response rating (blackgrass; [8]) | Plant response rating, Blackgrass (blackgrass; 62 g ai/ha)
80: Plant response rating, Ragweed (ragweed [2]; 62 g ai/ha) | Oilseed Rape plant response rating (oilseed rape; [7]) | Galium plant response rating (galium; [7]) | Velvetleaf plant response rating (velvetleaf; [7])
35: Soybean plant response rating (soybean; [7])
100: Foxtail, Giant plant response rating (giant foxtail; [8]) | Plant response rating, Foxtail, Giant (giant foxtail; 62 g ai/ha) | Oilseed Rape plant response rating (oilseed rape; [8]) | Plant response rating, Oilseed Rape (oilseed rape; 62 g ai/ha) | Barnyardgrass plant response rating (barnyardgrass; [8]) | Galium plant response rating (galium; [8]) | Plant response rating, Galium (galium; 62 g ai/ha) | Plant response rating, Kochia (kochia [4]; [6]) | Velvetleaf plant response rating (velvetleaf; [8]) | Plant response rating, Velvetleaf (velvetleaf; 62 g ai/ha)
95: Soybean plant response rating (soybean; [8])
70: Ryegrass, Italian plant response rating (Italian ryegrass; [8])
25: Wheat plant response rating (wheat, winter; [8]) | Plant response rating, Ryegrass, Italian (Italian ryegrass; 62 g ai/ha)

N#Cc1cnn(-c2c(C#N)cccc2Oc2ncc(Br)cn2)c1 [Compound 135]
70: Foxtail, Giant plant response rating (giant foxtail; [12]) | Plant response rating, Foxtail, Giant (giant foxtail; 31 g ai/ha) | Plant response rating, Kochia (kochia [4]; [10])
85: Velvetleaf plant response rating (velvetleaf; [12]) | Soybean plant response rating (soybean; [12]) | Lambsquarters plant response rating (lambsquarters; [12]) | Plant response rating, Lambsquarters (lambsquarters; 31 g ai/ha)
5: Foxtail, Giant plant response rating (giant foxtail; [7]) | Morningglory plant response rating (morningglory; [11]) | Corn plant response rating (corn; [11]) | Plant response rating, Corn (corn; 31 g ai/ha) | Velvetleaf plant response rating (velvetleaf; [11]) | Plant response rating, Johnsongrass (johnsongrass; 31 g ai/ha) | Plant response rating, Ryegrass, Italian (Italian ryegrass; 31 g ai/ha) | Plant response rating, Blackgrass (blackgrass; 31 g ai/ha)
50: Morningglory plant response rating (morningglory; [7]) | Plant response rating, Morningglory (morningglory; 31 g ai/ha)
55: Plant response rating, Ragweed (ragweed [2]; 31 g ai/ha) | Oilseed Rape plant response rating (oilseed rape; [7])
10: Corn plant response rating (corn; [7]) | Soybean plant response rating (soybean; [11]) | Ryegrass, Italian plant response rating (Italian ryegrass; [12])
0: Foxtail, Giant plant response rating (giant foxtail; [11]) | Ragweed plant response rating (ragweed [2]; [11]) | Barnyardgrass plant response rating (barnyardgrass; [11]) | Barnyardgrass plant response rating (barnyardgrass; [7]) | Wheat plant response rating (wheat, winter; [11]) | Wheat plant response rating (wheat, winter; [7]) | Wheat plant response rating (wheat, winter; [12]) | Plant response rating, Wheat (wheat, winter; 31 g ai/ha) | Galium plant response rating (galium; [11]) | Galium plant response rating (galium; [7]) | Johnsongrass plant response rating (johnsongrass; [11]) | Johnsongrass plant response rating (johnsongrass; [7]) | Ryegrass, Italian plant response rating (Italian ryegrass; [11]) | Ryegrass, Italian plant response rating (Italian ryegrass; [7]) | Blackgrass plant response rating (blackgrass; [11]) | Blackgrass plant response rating (blackgrass; [7])
90: Galium plant response rating (galium; [12])
60: Ragweed plant response rating (ragweed [1]; [9]) | Barnyardgrass plant response rating (barnyardgrass; [12])
95: Oilseed Rape plant response rating (oilseed rape; [12]) | Plant response rating, Oilseed Rape (oilseed rape; 31 g ai/ha)
30: Oilseed Rape plant response rating (oilseed rape; [11]) | Corn plant response rating (corn; [12]) | Lambsquarters plant response rating (lambsquarters; [7])
20: Kochia plant response rating (kochia [4]; [9]) | Soybean plant response rating (soybean; [7]) | Blackgrass plant response rating (blackgrass; [12])
65: Ragweed plant response rating (ragweed [2]; [12]) | Plant response rating, Soybean (soybean; 31 g ai/ha)
15: Plant response rating, Barnyardgrass (barnyardgrass; 31 g ai/ha)
45: Plant response rating, Velvetleaf (velvetleaf; 31 g ai/ha) | Johnsongrass plant response rating (johnsongrass; [12])
100: Plant response rating, Ragweed (ragweed [1]; [10]) | Plant response rating, Kochia (kochia [3]; [9]) | Kochia plant response rating (kochia [3]; [10])
40: Ragweed plant response rating (ragweed [2]; [7]) | Velvetleaf plant response rating (velvetleaf; [7])
80: Morningglory plant response rating (morningglory; [12]) | Plant response rating, Galium (galium; 31 g ai/ha)
